{"source": "patent US7553966B2", "about": "“Glucocorticoid mimetics, methods of making them, pharmaceutical compositions, and uses thereof” (Boehringer Ingelheim Pharmaceuticals, Inc., priority 2002, dated 2009)", "molecular_target": "T1, human glucocorticoid receptor (GR) complex (Homo sapiens, UniProt P04150)", "T1 construct": "made in house; host or cells: insect expression system (baculovirus lysate)", "T1 sequence (P04150 1-777)": "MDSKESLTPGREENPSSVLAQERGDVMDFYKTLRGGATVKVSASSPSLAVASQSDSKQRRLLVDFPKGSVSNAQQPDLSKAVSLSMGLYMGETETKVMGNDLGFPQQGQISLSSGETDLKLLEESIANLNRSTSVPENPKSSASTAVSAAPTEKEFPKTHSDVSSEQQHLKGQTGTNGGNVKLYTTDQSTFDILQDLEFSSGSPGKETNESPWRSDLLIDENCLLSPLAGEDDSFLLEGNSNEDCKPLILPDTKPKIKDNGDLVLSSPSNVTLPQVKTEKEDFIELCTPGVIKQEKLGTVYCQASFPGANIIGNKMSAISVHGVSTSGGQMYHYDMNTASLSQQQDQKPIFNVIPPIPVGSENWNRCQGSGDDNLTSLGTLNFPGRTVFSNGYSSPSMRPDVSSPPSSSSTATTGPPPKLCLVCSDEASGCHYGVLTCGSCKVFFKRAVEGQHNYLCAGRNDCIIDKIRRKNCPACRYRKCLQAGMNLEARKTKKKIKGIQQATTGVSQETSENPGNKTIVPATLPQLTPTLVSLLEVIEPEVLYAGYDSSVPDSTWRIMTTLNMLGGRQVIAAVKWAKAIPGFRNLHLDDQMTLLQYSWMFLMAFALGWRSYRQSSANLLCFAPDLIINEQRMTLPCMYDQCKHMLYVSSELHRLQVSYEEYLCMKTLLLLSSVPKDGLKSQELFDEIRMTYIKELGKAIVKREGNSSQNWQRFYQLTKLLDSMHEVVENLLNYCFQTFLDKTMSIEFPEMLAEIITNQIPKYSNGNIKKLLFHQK", "experiment": "Glucocorticoid Receptor Competitive Binding Assay (fluorescence polarization, TAMRA-labeled dexamethasone probe)", "details": "qualitative statement; competition with TAMRA-labeled dexamethasone", "description": "Compounds of the invention were evaluated for binding to the steroid receptor by a fluorescence polarization competitive binding assay.\nA. Glucocorticoid Receptor Competitive Binding Assay\nStep 1. Characterization of the Fluorescent Probe\nThe wavelengths for maximum excitation and emission of the fluorescent probe should first be measured. An example of such a probe is rhodamine (TAMRA)-labeled dexamethasone.\nThe affinity of the probe for the steroid receptor was then determined in a titration experiment. The fluorescence polarization value of the probe in assay buffer was measured on an SLM-8100 fluorometer using the excitation and emission maximum values described above. Aliquots of expression vector lysate were added and fluorescence polarization was measured after each addition until no further change in polarization value was observed. Non-linear least squares regression analysis was used to calculate the dissociation constant of the probe from the polarization values obtained for lysate binding to the probe.\nStep 2. Screening for Inhibitors of Probe Binding\nThis assay uses fluorescence polarization (FP) to quantitate the ability of test compounds to compete with tetramethyl rhodamine (TAMRA)-labeled dexamethasone for binding to a human glucocorticoid receptor (GR) complex prepared from an insect expression system. The assay buffer was: 10 mM TES, 50 mM KCl, 20 mM Na2MoO4. 2H2O, 1.5 mM EDTA, 0.04% w/v CHAPS, 10% v/v glycerol, 1 mM dithiothreitol, pH 7.4. Test compounds were dissolved to 1 mM in neat DMSO and then further diluted to 10× assay concentration in assay buffer supplemented with 10% v/v DMSO. Test compounds were serially diluted at 10× assay concentrations in 10% DMSO-containing buffer in 96-well polypropylene plates. […] Positive controls were reaction mixtures containing no test compound; negative controls (blanks) were reaction mixtures containing 0.7 μM to 2 μM dexamethasone. […] IC50 values were determined by iterative non-linear curve fitting of the FP signal data to a 4-parameter logistic equation.", "data": [{"smiles": "CCC(O)(Cc1cc2ccccc2[nH]1)CC(C)(C)c1cc(F)ccc1OC", "note": "(stereo not drawn) [5-(5-Fluoro-2-methoxyphenyl)-3-(indol-2-ylmethyl)-5-methylhexan-3-ol]", "values": [{"measurement": "activity in the GR binding assay", "result": "potent activity"}]}, {"smiles": "CC(C)(CC(O)(Cc1ccnc2ccccc12)C(F)(F)F)c1ccc2ccccc2c1O", "note": "(stereo not drawn) [2-(4,4,4-Trifluoro-3-hydroxy-1,1-dimethyl-3-quinolin-4-ylmethylbutyl)naphthalen-1-ol]", "values": [{"measurement": "activity in the GR binding assay", "result": "potent activity"}]}, {"smiles": "CC(C)(CC(O)(Cc1cc2ccccc2[nH]1)C(F)(F)F)c1ccc2ccccc2c1", "note": "(stereo not drawn) [1,1,1-Trifluoro-2-(1H-indol-2-ylmethyl)-4-methyl-4-naphthalen-2-ylpentan-2-ol]", "values": [{"measurement": "activity in the GR binding assay", "result": "potent activity"}]}, {"smiles": "COc1ccc(F)cc1C(C)(C)CC(O)(Cc1cc2ncccc2[nH]1)C(F)(F)F", "note": "(stereo not drawn) [1,1,1-Trifluoro-4-(5-fluoro-2-methoxyphenyl)-4-methyl-2-(1H-pyrrolo[3,2-b]pyridin-2-ylmethyl)pentan-2-ol]", "values": [{"measurement": "activity in the GR binding assay", "result": "potent activity"}]}, {"smiles": "COc1ccc(F)cc1C(C)(C)CC(O)(Cc1nc2ccc(F)c(F)c2[nH]1)C(F)(F)F", "note": "(stereo not drawn) [2-(6,7-Difluoro-1H-benzoimidazol-2-ylmethyl)-1,1,1-trifluoro-4-(5-fluoro-2-methoxyphenyl)-4-methylpentan-2-ol]", "values": [{"measurement": "activity in the GR binding assay", "result": "potent activity"}]}, {"smiles": "CCc1cccc(C(C)(C)CC(O)(Cc2ccnc3ccccc23)C(F)(F)F)c1O", "note": "(stereo not drawn) [2-Ethyl-6-(4,4,4-trifluoro-3-hydroxy-1,1-dimethyl-3-quinolin-4-ylmethylbutyl)phenol]", "values": [{"measurement": "activity in the GR binding assay", "result": "potent activity"}]}, {"smiles": "CCc1cccc(C(C)(C)CC(O)(Cc2cc3ccccc3[nH]2)C(F)(F)F)c1O", "note": "(stereo not drawn) [2-Ethyl-6-[4,4,4-trifluoro-3-hydroxy-3-(1H-indol-2-ylmethyl)-1,1-dimethylbutyl]phenol]", "values": [{"measurement": "activity in the GR binding assay", "result": "potent activity"}]}, {"smiles": "COc1ccc(F)cc1C(C)(C)CC(O)(Cc1cc2cc(F)ccc2[nH]1)C(F)(F)F", "note": "(stereo not drawn) [1,1,1-Trifluoro-2-(5-fluoro-1H-indol-2-ylmethyl)-4-(5-fluoro-2-methoxyphenyl)-4-methylpentan-2-ol]", "values": [{"measurement": "activity in the GR binding assay", "result": "potent activity"}]}, {"smiles": "COC(=O)c1ccc2[nH]c(CC(O)(CC(C)(C)c3cc(F)ccc3OC)C(F)(F)F)cc2c1", "note": "(stereo not drawn) [2-[4-(5-Fluoro-2-methoxyphenyl)-2-hydroxy-4-methyl-2-trifluoromethylpentyl]-1H-indole-5-carboxylic acid methyl ester]", "values": [{"measurement": "activity in the GR binding assay", "result": "potent activity"}]}, {"smiles": "Cc1cccc(C)c1C(C)(C)CC(O)(Cc1ccnc2ccccc12)C(F)(F)F", "note": "(stereo not drawn) [4-(2,6-Dimethylphenyl)-1,1,1-trifluoro-4-methyl-2-quinolin-4-ylmethylpentan-2-ol]", "values": [{"measurement": "activity in the GR binding assay", "result": "potent activity"}]}, {"smiles": "COc1cccc(C(C)(C)CC(O)(Cc2cc3cc(C#N)ccc3[nH]2)C(F)(F)F)c1", "note": "(stereo not drawn) [2-[2-Hydroxy-4-(3-methoxyphenyl)-4-methyl-2-trifluoromethylpentyl]-1H-indole-5-carbonitrile]", "values": [{"measurement": "activity in the GR binding assay", "result": "potent activity"}]}, {"smiles": "COc1ccc(F)cc1C(C)(C)CC(O)(Cn1cc(C#N)c2ccccc21)C(F)(F)F", "note": "(stereo not drawn) [1-[4-(5-Fluoro-2-methoxyphenyl)-2-hydroxy-4-methyl-2-trifluoromethylpentyl]-1H-indole-3-carbonitrile]", "values": [{"measurement": "activity in the GR binding assay", "result": "potent activity"}]}, {"smiles": "CC(C)(CC(O)(Cc1cc2cccc(F)c2[nH]1)C(F)(F)F)c1ccccc1", "note": "(stereo not drawn) [1,1,1-Trifluoro-2-(7-fluoro-1H-indol-2-ylmethyl)-4-methyl-4-phenylpentan-2-ol]", "values": [{"measurement": "activity in the GR binding assay", "result": "potent activity"}]}, {"smiles": "CC(C)(CC(O)(Cc1cc2ccccc2[nH]1)C(F)(F)F)c1ccccc1", "note": "(stereo not drawn) [1,1,1-Trifluoro-2-(1H-indol-2-ylmethyl)-4-methyl-4-phenylpentan-2-ol]", "values": [{"measurement": "activity in the GR binding assay", "result": "potent activity"}]}, {"smiles": "COc1ccc(F)cc1C(C)(C)CC(O)(Cn1cc(C)nc1-c1ccccc1)C(F)(F)F", "note": "(stereo not drawn) [2-(2-Phenyl-4-methylimidazol-1-ylmethyl)-1,1,1-trifluoro-4-(5-fluoro-2-methoxyphenyl)-4-methylpentan-2-ol]", "values": [{"measurement": "activity in the GR binding assay", "result": "potent activity"}]}]}
